IC50 data for 18 molecules are collected here from patent US12404295B2, “(Hetero)aryl-methyl-thio-beta-D-galactopyranoside derivatives” (Idorsia Pharmaceuticals Ltd, priority 2019, dated 2025).

For orientation: IC50 means the concentration that inhibits the measured activity by half.

For test [1], the target named is human Gal-3 (hGal-3) (Homo sapiens (Human), UniProt P17931). Nature of the test: competitive binding assay: biotinylated hGal-3 binding to microplate-adsorbed asialofetuin (ASF). The method, boiled down:
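Serial DMSO dilutions of each compound; binding incubation of 3 hours at 4 °C with cold-buffer washes; detection using 80 ng/mL streptavidin-peroxidase for 1 hour, then ABTS. Multiple determinations were averaged to give the IC50.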

Test [2] addresses human Gal-1 (hGal-1) (Homo sapiens (Human), UniProt P09382). The test is described as follows: competitive binding assay: biotinylated hGal-1 binding to microplate-adsorbed asialofetuin (ASF). The settings on record: Table 15; read-out: IC50 (Galectin-1 inhibition). In outline: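 Spectrophotometric competition readout: after compound and biotinylated hGal-1 (300-1000 ng/mL) sit 3 h at 4° C on adsorbed asialofetuin, streptavidin-peroxidase (1 h, 4° C) and ABTS reveal residual binding. Reported IC50 values are means of repeat runs.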

Setting [3] is: Table 10, 2-OMe-Gal inhibitors, read-out: IC50 (Gal-3 inhibition).
The mark [4] stands for this setting: Gal-3 inhibition, binding of biotinylated hGal-3 to ASF, mean values, read-out: IC50.
The mark [5] stands for this setting: Table 5, read-out: IC50 (Gal-3 inhibition).
Setting [6] is: Table 11, read-out: IC50 (Gal-3 inhibition).

Like-named read-outs stand apart in the source and are kept apart here. Some results are limits rather than exact numbers.

Sequence of human Gal-3 (hGal-3) (P17931 whole entry): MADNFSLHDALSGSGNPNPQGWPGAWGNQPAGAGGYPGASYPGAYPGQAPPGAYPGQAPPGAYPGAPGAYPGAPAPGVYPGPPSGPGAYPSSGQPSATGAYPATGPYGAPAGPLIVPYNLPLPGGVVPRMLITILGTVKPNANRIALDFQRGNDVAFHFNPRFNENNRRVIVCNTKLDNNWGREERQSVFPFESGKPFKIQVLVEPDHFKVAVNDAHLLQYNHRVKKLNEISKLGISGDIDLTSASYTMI
Sequence of human Gal-1 (hGal-1) (P09382 whole entry): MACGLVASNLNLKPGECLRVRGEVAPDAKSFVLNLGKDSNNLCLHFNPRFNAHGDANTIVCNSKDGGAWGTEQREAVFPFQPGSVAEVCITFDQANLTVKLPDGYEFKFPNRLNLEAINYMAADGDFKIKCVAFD

As to `CO[C@@H]1[C@@H](n2cc(-c3cc(F)c(F)c(F)c3)nn2)[C@@H](O)[C@@H](CO)O[C@H]1S[C@H](c1nocc1C)C1(O)CCC(F)(F)CC1` [Example 2.44.120R.I., (2R,3R,4S,5R,6S)-6-(((R)-(4,4-Difluoro-1-hydroxycyclohexyl)(4-methylisoxazol-3-yl)methyl)thio)-2-(hydroxymethyl)-5-methoxy-4-(4-(3,4,5-trifluorophenyl)-1H-1,2,3-triazol-1-yl)tetrahydro-2H-pyran-3-ol], the IC50 in test [1] (setting [3]) was determined as 210 nM; in test [2], 610 nM.
Regarding `CC(C)(O)[C@H](S[C@@H]1O[C@H](CO)[C@H](O)[C@H](n2cc(-c3cc(F)c(F)c(F)c3)nn2)[C@H]1O)c1ccccc1-c1ccccc1` [Example 2.31.110R., (2S,3R,4S,5R,6R)-2-(((R)-1-([1,1′-Biphenyl]-2-yl)-2-hydroxy-2-methylpropyl)thio)-6-(hydroxymethyl)-4-(4-(3,4,5-trifluorophenyl)-1H-1,2,3-triazol-1-yl)tetrahydro-2H-pyran-3,5-diol], the IC50 in test [1] (setting [4]) worked out at 220 nM; in test [2], 280 nM.
The like results for `Cc1c(F)cc(-c2cn([C@H]3[C@@H](O)[C@@H](CO)O[C@@H](SC(c4ccccc4C(F)(F)F)C(C)(C)O)[C@@H]3O)nn2)cc1F` (stereo partly drawn) [Example 3.31.112., (2S,3R,4S,5R,6R)-4-(4-(3,5-Difluoro-4-methylphenyl)-1H-1,2,3-triazol-1-yl)-2-((2-hydroxy-2-methyl-1-(2-(trifluoromethyl)phenyl)propyl)thio)-6-(hydroxymethyl)tetrahydro-2H-pyran-3,5-diol] were, in that order, 210 nM and 4900 nM.
In the same order, the values of `Cc1cccnc1C(S[C@@H]1O[C@H](CO)[C@H](O)[C@H](n2cc(-c3cc(F)c(F)c(F)c3)nn2)[C@H]1O)C1(O)CCOCC1` (stereo partly drawn) [Example 2.41.126., (2R,3R,4S,5R,6S)-2-(Hydroxymethyl)-6-(((4-hydroxytetrahydro-2H-pyran-4-yl)(3-methylpyridin-2-yl)methyl)thio)-4-(4-(3,4,5-trifluorophenyl)-1H-1,2,3-triazol-1-yl)tetrahydro-2H-pyran-3,5-diol] are 80 nM and 800 nM.
In the case of `CN1CCC(O)([C@H](S[C@@H]2O[C@H](CO)[C@H](O)[C@H](n3cc(-c4cc(F)c(F)c(F)c4)nn3)[C@H]2O)c2ncccc2C(F)(F)F)CC1` [Example 2.40.125R., (2S,3R,4S,5R,6R)-2-(((R)-(4-Hydroxy-1-methylpiperidin-4-yl)(3-(trifluoromethyl)pyridin-2-yl)methyl)thio)-6-(hydroxymethyl)-4-(4-(3,4,5-trifluorophenyl)-1H-1,2,3-triazol-1-yl)tetrahydro-2H-pyran-3,5-diol], the half-maximal inhibitory concentration (IC50) came to 20 nM in test [1] (setting [5]) and 40 nM in test [2].
With `CC(C)(O)C(S[C@@H]1O[C@H](CO)[C@H](O)[C@H](n2cc(-c3cc(F)c(F)c(F)c3)nn2)[C@H]1O)c1ccccc1C1CC1` (stereo partly drawn) [Example 2.31.106., (2S,3R,4S,5R,6R)-2-((1-(2-Cyclopropylphenyl)-2-hydroxy-2-methylpropyl)thio)-6-(hydroxymethyl)-4-(4-(3,4,5-trifluorophenyl)-1H-1,2,3-triazol-1-yl)tetrahydro-2H-pyran-3,5-diol], the IC50 is 200 nM in test [1] (setting [4]) and 340 nM in test [2].
For the molecule “(2S,3R,4S,5R,6R)-2-(((S)-((S)-4-Hydroxy-2,2-dimethyltetrahydro-2H-pyran-4-yl)(2-(trifluoromethyl)phenyl)methyl)thio)-6-(hydroxymethyl)-4-(4-(3,4,5-trifluorophenyl)-1H-1,2,3-triazol-1-yl)tetrahydro-2H-pyran-3,5-diol [Example 2.43.102SS.]”, the IC50 came to 3920 nM in test [1] (setting [5]) and 69500 nM in test [2].
Take `CO[C@@H]1[C@@H](n2cc(-c3cc(F)c(F)c(F)c3)nn2)[C@@H](O)[C@@H](CO)O[C@H]1S[C@@H](c1nccc(Cl)c1Cl)C1(O)CCC(F)(F)CC1` (single isomer, unassigned) [Example 2.44.143R.I.]: the IC50 came to 70 nM in test [1] (setting [6]) and 860 nM in test [2].
For `CO[C@@H]1[C@@H](n2cc(-c3cc(F)c(F)c(F)c3)nn2)[C@@H](O)[C@@H](CO)O[C@H]1S[C@H](c1ncccc1C1CC1)C1(O)CCC(F)(F)CC1` [Example 2.44.134R.I., (2R,3R,4S,5R,6S)-6-(((R)-(3-Cyclopropylpyridin-2-yl)(4,4-difluoro-1-hydroxycyclohexyl)methyl)thio)-2-(hydroxymethyl)-5-methoxy-4-(4-(3,4,5-trifluorophenyl)-1H-1,2,3-triazol-1-yl)tetrahydro-2H-pyran-3-ol [1,3-di-deoxy-1-((4,4-difluoro-1-hydroxy-cyclohexan-1-yl)-(3-(-cyclopropyl)pyridin-2-yl)methyl-(R)-thio)-2-O-methyl-3-[4-(3,4,5-trifluorophenyl)-1H-1,2,3-triazol-1-yl]-b-D-galactopyranoside]], the IC50 in test [1] (Table 9, 2-OMe-Gal inhibitors, read-out: IC50 (Gal-3 inhibition)) is 60 nM; in test [2] it was 110 nM.
On to `Cc1c(F)cccc1[C@H](S[C@@H]1O[C@H](CO)[C@H](O)[C@H](n2cc(-c3cc(F)c(F)c(F)c3)nn2)[C@H]1O)C(C)(C)O` (single isomer, unassigned) [Example 2.31.114R.], for which the results for the IC50 in test [1] (setting [4]) and in test [2] were 180 nM and 7240 nM, respectively.
On to `Cc1ccccc1[C@H](S[C@@H]1O[C@H](CO)[C@H](O)[C@H](n2cc(-c3cc(F)c(F)c(F)c3)nn2)[C@H]1O)C(C)(C)O` [Example 2.31.102S., (2S,3R,4S,5R,6R)-2-(((S)-2-Hydroxy-2-methyl-1-(o-tolyl)propyl)thio)-6-(hydroxymethyl)-4-(4-(3,4,5-trifluorophenyl)-1H-1,2,3-triazol-1-yl)tetrahydro-2H-pyran-3,5-diol], for which the IC50 worked out at 4430 nM in test [1] (setting [4]) and 6980 nM in test [2].
As to “(2S,3R,4S,5R,6R)-2-(((S)-(4-Hydroxy-2,2,6,6-tetramethyltetrahydro-2H-pyran-4-yl)(2-(trifluoromethyl)phenyl)methyl)thio)-6-(hydroxymethyl)-4-(4-(3,4,5-trifluorophenyl)-1H-1,2,3-triazol-1-yl)tetrahydro-2H-pyran-3,5-diol [Example 2.42.102S.]”, the IC50 in test [1] (setting [5]) is 7820 nM; in test [2], more than 100000 nM.
`CO[C@@H]1[C@@H](n2cc(-c3cc(F)c(F)c(F)c3)nn2)[C@@H](O)[C@@H](CO)O[C@H]1SC(c1nccnc1Cl)C1(O)CCC(F)(F)CC1` (stereo partly drawn) [Example 2.44.133.I., (2R,3R,4S,5R,6S)-6-(((3-Chloropyrazin-2-yl)(4,4-difluoro-1-hydroxycyclohexyl)methyl)thio)-2-(hydroxymethyl)-5-methoxy-4-(4-(3,4,5-trifluorophenyl)-1H-1,2,3-triazol-1-yl)tetrahydro-2H-pyran-3-ol]: the IC50 in test [1] (setting [3]) worked out at 170 nM; in test [2], 1220 nM.
For the molecule `OC[C@H]1O[C@@H](S[C@H](c2ncccc2C(F)(F)F)C2(O)CCCC2)[C@H](O)[C@@H](n2cc(-c3cc(F)c(F)c(F)c3)nn2)[C@H]1O` [Example 2.38.125R., (2S,3R,4S,5R,6R)-2-(((R)-(1-Hydroxycyclopentyl)(3-(trifluoromethyl)pyridin-2-yl)methyl)thio)-6-(hydroxymethyl)-4-(4-(3,4,5-trifluorophenyl)-1H-1,2,3-triazol-1-yl)tetrahydro-2H-pyran-3,5-diol], the IC50 in test [1] (setting [4]) was 80 nM; in test [2] it was 480 nM.
As for “(2S,3R,4S,5R,6R)-2-(((S)-(1-Hydroxycyclohexyl)(4-methylisoxazol-3-yl)methyl)thio)-6-(hydroxymethyl)-4-(4-(3,4,5-trifluorophenyl)-1H-1,2,3-triazol-1-yl)tetrahydro-2H-pyran-3,5-diol [Example 2.39.120S.]”, the IC50 is 14800 nM in test [1] (setting [5]) and 70000 nM in test [2].
With `CO[C@@H]1[C@@H](n2cc(-c3cc(F)c(F)c(F)c3)nn2)[C@@H](O)[C@@H](CO)O[C@H]1S[C@H](c1noc(C2CC2)c1CC(C)C)C1(O)CCC(F)(F)CC1` [Example 2.44.131R.I., (2R,3R,4S,5R,6S)-6-(((R)-(5-Cyclopropyl-4-isobutylisoxazol-3-yl)(4,4-difluoro-1-hydroxycyclohexyl)methyl)thio)-2-(hydroxymethyl)-5-methoxy-4-(4-(3,4,5-trifluorophenyl)-1H-1,2,3-triazol-1-yl)tetrahydro-2H-pyran-3-ol], the results for the half-maximal inhibitory concentration (IC50) in test [1] (setting [3]) and in test [2] were 130 nM and 100 nM, respectively.
`CO[C@@H]1[C@@H](n2cc(-c3cc(F)c(F)c(F)c3)nn2)[C@@H](O)[C@@H](CO)O[C@H]1S[C@H](c1nccc(C(F)(F)F)c1C)C1(O)CCC(F)(F)CC1` [Example 2.44.147R.I., (2R,3R,4S,5R,6S)-6-(((R)-(4,4-Difluoro-1-hydroxycyclohexyl)(3-methyl-4-(trifluoromethyl)pyridin-2-yl)methyl)thio)-2-(hydroxymethyl)-5-methoxy-4-(4-(3,4,5-trifluorophenyl)-1H-1,2,3-triazol-1-yl)tetrahydro-2H-pyran-3-ol]: the IC50 in test [1] (setting [6]) is 190 nM; in test [2], 760 nM.
Take `Cc1nc([C@H](S[C@@H]2O[C@H](CO)[C@H](O)[C@H](n3cc(-c4cc(F)c(F)c(F)c4)nn3)[C@H]2O)C(C)(C)O)c(C)o1` [Example 2.31.122S., (2S,3R,4S,5R,6R)-2-(((S)-1-(2,5-dimethyloxazol-4-yl)-2-hydroxy-2-methylpropyl)thio)-6-(hydroxymethyl)-4-(4-(3,4,5-trifluorophenyl)-1H-1,2,3-triazol-1-yl)tetrahydro-2H-pyran-3,5-diol]: the results for the half-inhibitory concentration (IC50) in test [1] (setting [4]) and in test [2] were 4120 nM and 11200 nM, respectively.
